Consider 26 molecules from patent US20070021434A1, “NON-NUCLEOSIDE ANTI-HEPACIVIRUS AGENTS AND USES THEREOF” (Migenix Inc., priority 2005, published 2007).

The term IC50 denotes the concentration that inhibits the measured activity by half.

Structures are written as SMILES. Some results are limits rather than exact numbers.

The target in this test is HCV RdRp (NS5B) (UniProt P26663). The class given is biochemical, hepatitis C virus.
Chain of HCV RdRp (NS5B) (P26663 whole entry, looked up): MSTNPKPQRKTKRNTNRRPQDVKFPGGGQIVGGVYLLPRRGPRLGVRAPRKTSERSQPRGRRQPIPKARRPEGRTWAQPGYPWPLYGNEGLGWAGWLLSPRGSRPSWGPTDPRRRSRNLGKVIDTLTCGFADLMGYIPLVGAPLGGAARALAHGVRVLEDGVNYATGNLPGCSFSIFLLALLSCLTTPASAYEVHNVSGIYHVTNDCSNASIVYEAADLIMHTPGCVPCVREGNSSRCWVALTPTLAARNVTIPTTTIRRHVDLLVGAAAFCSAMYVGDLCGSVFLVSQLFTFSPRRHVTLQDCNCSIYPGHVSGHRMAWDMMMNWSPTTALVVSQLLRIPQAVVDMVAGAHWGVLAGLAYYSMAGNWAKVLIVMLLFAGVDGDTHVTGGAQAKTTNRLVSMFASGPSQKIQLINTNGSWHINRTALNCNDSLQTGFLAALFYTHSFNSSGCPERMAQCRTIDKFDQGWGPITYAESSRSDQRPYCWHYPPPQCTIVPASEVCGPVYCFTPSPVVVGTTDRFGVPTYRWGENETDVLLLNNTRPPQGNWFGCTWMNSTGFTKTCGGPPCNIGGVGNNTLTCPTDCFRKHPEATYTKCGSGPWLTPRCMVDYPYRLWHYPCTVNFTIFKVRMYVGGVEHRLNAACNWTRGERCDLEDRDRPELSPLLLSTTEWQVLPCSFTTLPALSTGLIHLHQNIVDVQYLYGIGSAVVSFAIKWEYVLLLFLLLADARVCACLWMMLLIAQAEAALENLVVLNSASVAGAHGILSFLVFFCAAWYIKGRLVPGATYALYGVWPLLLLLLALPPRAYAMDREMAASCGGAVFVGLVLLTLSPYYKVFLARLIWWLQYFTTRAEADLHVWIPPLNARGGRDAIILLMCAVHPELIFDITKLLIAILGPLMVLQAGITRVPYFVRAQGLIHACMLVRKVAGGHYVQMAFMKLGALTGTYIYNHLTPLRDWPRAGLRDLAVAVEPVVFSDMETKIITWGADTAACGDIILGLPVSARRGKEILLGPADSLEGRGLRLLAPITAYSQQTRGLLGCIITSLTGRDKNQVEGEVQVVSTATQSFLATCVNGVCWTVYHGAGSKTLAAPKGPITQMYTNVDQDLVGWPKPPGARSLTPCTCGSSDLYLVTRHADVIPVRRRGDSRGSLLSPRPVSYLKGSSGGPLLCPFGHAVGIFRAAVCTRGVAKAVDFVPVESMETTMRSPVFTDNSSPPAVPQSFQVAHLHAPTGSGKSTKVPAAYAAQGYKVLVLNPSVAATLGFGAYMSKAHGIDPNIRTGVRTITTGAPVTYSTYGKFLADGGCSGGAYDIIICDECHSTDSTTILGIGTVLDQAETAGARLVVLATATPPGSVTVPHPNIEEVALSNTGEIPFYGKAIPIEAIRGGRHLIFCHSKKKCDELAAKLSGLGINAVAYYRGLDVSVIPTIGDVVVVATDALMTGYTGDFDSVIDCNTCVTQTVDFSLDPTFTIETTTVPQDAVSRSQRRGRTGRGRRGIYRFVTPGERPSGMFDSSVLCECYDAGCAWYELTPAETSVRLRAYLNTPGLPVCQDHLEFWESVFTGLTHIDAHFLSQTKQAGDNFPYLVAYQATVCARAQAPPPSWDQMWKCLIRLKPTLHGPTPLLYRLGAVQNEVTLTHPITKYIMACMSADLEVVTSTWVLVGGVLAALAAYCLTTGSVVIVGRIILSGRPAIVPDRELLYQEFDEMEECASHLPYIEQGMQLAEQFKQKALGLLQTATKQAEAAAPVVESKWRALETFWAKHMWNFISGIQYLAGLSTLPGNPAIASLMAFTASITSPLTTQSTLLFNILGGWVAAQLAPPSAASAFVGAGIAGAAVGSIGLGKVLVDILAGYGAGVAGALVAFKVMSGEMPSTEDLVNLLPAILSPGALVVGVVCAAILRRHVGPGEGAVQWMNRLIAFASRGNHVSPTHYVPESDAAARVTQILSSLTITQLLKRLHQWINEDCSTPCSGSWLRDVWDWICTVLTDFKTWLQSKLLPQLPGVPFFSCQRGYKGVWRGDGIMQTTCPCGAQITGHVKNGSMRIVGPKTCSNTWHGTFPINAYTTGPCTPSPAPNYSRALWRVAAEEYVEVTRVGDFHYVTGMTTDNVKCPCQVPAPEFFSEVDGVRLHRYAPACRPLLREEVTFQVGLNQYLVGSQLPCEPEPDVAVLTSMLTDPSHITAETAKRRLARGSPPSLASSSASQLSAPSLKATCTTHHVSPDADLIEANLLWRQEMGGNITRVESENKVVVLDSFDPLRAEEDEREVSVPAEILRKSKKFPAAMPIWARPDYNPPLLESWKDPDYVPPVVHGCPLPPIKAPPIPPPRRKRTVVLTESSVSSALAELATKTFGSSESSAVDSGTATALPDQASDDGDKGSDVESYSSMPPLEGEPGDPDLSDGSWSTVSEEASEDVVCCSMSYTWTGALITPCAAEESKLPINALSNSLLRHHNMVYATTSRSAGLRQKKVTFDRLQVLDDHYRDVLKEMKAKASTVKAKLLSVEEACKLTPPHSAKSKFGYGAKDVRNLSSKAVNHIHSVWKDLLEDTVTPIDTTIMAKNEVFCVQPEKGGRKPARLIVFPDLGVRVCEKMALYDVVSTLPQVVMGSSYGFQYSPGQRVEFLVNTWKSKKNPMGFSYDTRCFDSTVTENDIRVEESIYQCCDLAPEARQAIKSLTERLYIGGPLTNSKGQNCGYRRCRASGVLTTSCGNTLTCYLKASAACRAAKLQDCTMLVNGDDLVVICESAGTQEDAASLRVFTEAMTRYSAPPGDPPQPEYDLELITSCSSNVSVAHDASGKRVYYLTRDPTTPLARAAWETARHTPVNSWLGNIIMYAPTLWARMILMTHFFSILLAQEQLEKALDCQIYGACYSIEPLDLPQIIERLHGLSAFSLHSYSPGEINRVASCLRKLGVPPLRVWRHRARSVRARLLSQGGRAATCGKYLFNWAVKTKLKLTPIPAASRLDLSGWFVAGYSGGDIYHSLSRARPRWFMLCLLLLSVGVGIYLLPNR
`Cc1ccc(NC(=O)C(CCCCN)NC(=O)COc2ccc(-c3ccccc3)cc2)cc1` [Compound 326, (S)-6-AMINO-2-[2-(BIPHENYL-4-YLOXY)-ACETYLAMINO]-HEXANOIC ACID P-TOLYLAMIDE] gave an IC50 of over 50 µM. In the case of `COC(=O)[C@H](Cc1c[nH]c2ccccc12)NC(=O)C(CCCCN)NC(=O)OCC1c2ccccc2-c2ccccc21` (stereo partly drawn) [Compound 58, (S)-2-[6-AMINO-2-((9H-FLUOREN-9-YLMETHOXYCARBONYL)AMINO)-HEXANOYL-(R)-AMINO]-3-(1H-INDOL-3-YL)-PROPIONIC ACID METHYL ESTER] it was over 50 µM; in that of `Cc1ccc(NC(=O)[C@H](CCCCN)NC(=O)NCc2ccc(Cl)c(Cl)c2)cc1` [Compound 140, (S)-6-AMINO-2-[3-(3,4-DICHLORO-BENZYL)-UREIDO]-HEXANOIC ACID P-TOLYLAMIDE], 10 to 50 µM. The same measure for `CCOC(=O)c1ccc(NC(=O)NC(CCCCN)C(=O)Nc2ccc(C)cc2)cc1` [Compound 245, (S)-4-[3-(5-AMINO-1-P-TOLYLCARBAMOYL-PENTYL)-UREIDO]-BENZOIC ACID ETHYL ESTER]: over 50 µM; for `CC(C)(C)c1ccc(NC(=O)[C@H](Cc2ccc(CN)cc2)NC(=O)NCc2ccccc2)cc1` [Compound 148, (S)-3-(4-AMINOMETHYL-PHENYL)-2-(3-BENZYL-UREIDO)-N-(4-TERT-BUTYL-PHENYL)-PROPIONAMIDE]: over 50 µM. The molecule `NCCCC[C@H](NC(=O)Nc1ccc(OCc2ccccc2)cc1)C(=O)N1CCOCC1` [Compound 318, (S)-l -[5-AMINO-1-(MORPHOLINE-4-CARBONYL)-PENTYL]-3-(4-BENZYLOXY-PHENYL)-UREA] came in with an IC50 of 10 to 50 µM. In the case of `NCCCC[C@@H](NC(=O)Nc1cccc2ccccc12)C(=O)Nc1ccc(CN(C(=O)c2ccco2)C2CCCCC2)cc1` [Compound 32, (R)-FURAN-2-CARBOXYLIC ACID {4-[6-AMINO-2-(3-NAPHTHALEN-1-YL-UREIDO)-HEXANOYLAMINO]-BENZYL}-CYCLOHEXYL-AMIDE] it was over 50 µM; in that of `CC(=O)Nc1ccc(NC(=O)[C@H](CCCCN)NC(=O)OCC2c3ccccc3-c3ccccc32)cc1` [Compound 230, (S)-[1-(4-ACETYLAMINO-PHENYLCARBAMOYL)-5-AMINO-PENTYL]-CARBAMIC ACID 9H-FLUOREN-9-YLMETHYL ESTER], over 50 µM. Take `Cc1ccc(NC(=O)C(CCCCN)NC(=O)CC2c3ccccc3-c3ccccc32)cc1` [Compound 53, (S)-6-AMINO-2-(2-9H-FLUOREN-9-YL-ACETYLAMINO)-HEXANOIC ACID P-TOLYLAMIDE]: the IC50 is over 50 µM. In the case of `Cc1cc2cc(NC(=O)[C@H](CCCCNC(=O)CN)NC(=O)Nc3ccc(OCc4ccccc4)cc3)ccc2[nH]1` [Compound 239, (S)-6-(2-AMINO-ACETYLAMINO)-2-[3-(4-BENZYLOXY-PHENYL)-UREIDO]-HEXANOIC ACID (2-METHYL-1H-INDOL-5-YL)-AMIDE] it was under 10 µM. In the case of `Cc1ccc(NC(=O)C(CCCCN)NC(=O)c2c(C)ccc3ccccc23)cc1` [Compound 63, (S)-2-METHYL-NAPHTHALENE-1-CARBOXYLIC ACID (5-AMINO-1-P-TOLYLCARBAMOYL-PENTYL)-AMIDE] it was over 50 µM; in that of `Cc1ccc(NC(=O)C(Cc2c[nH]c3ccccc23)NC(=O)OCC2c3ccccc3-c3ccccc32)cc1` [Compound 379, (R)-[2-(1H-INDOL-3-YL)-1-P-TOLYLCARBAMOYL-ETHYL]-CARBAMIC ACID 9H-FLUOREN-9-YLMETHYL ESTER], over 50 µM; in that of `Cc1ccc(NC(=O)C[C@H](CCCCN)NC(=O)Nc2ccc3c(c2)Cc2ccccc2-3)cc1` [Compound 247, (S)-7-AMINO-3-[3-(9H-FLUOREN-2-YL)-UREIDO]-HEPTANOIC ACID P-TOLYLAMIDE], 10 to 50 µM. In the case of `Cc1ccc(NC(=O)[C@H](CCCCN)NC(=O)CNc2cccc(C)c2)cc1` [Compound 355, (S)-6-AMINO-2-(2-M-TOLYLAMINO-ACETYLAMINO)-HEXANOIC ACID P-TOLYLAMIDE] it was over 50 µM; in that of `Cc1ccc(NC(=O)C(CCCCN)NC(=O)Nc2ccc(C=Cc3ccccc3)cc2)cc1` [Compound 236, (S)-6-AMINO-2-[3-(4-STYRYL-PHENYL)-UREIDO]-HEXANOIC ACID P-TOLYLAMIDE], under 10 µM. Regarding `NCCCC[C@H](N)C(=O)Nc1ccc(CN(C(=O)c2ccco2)C2CCCCC2)cc1` [Compound 7, (S)-FURAN-2-CARBOXYLIC ACID CYCLOHEXYL-[4-(2,6-DIAMINO-HEXANOYLAMINO)-BENZYL]-AMIDE], the IC50 was over 50 µM. The molecule `CC(C)(NC(=O)c1ccc(C(=O)O)cc1)C(=O)Nc1ccc(CN(C(=O)c2ccco2)C2CCCCC2)cc1` [Compound 4, N-[1-(4-{[CYCLOHEXYL-(FURAN-2-CARBONYL)-AMINO]-METHYL}-PHENYLCARBAMOYL)-1-METHYL-ETHYL]-TERE[…]] displayed an IC50 of over 50 µM.

In turn, `CC(=O)NCC(=O)N1CCN(C(=O)OCC2c3ccccc3-c3ccccc32)C(CC(=O)Nc2ccc(C)cc2)C1` (centres unmarked) [Compound 186, 4-(2-ACETYLAMINO-ACETYL)-2-(P-TOLYLCARBAMOYL-METHYL)-PIPERAZINE-1-CARBOXYLIC ACID 9H-FLUOREN-9-YLMETHYL ESTER] registered an IC50 of over 50 µM. The same measure for `Cc1ccc(NC(=O)C(CCCN)NC(=O)OCC2c3ccccc3-c3ccccc32)cc1` [Compound 101, (S)-(4-AMINO-1-P-TOLYLCARBAMOYL-BUTYL)-CARBAMIC ACID 9H-FLUOREN-9-YLMETHYL ESTER]: over 50 µM; for `Cc1ccc(NC(=O)C(CCCCN)NC(=O)Nc2ccc(-c3ccccc3)cc2)cc1` [Compound 171, (R)-6-AMINO-2-(3-BIPHENYL-4-YL-UREIDO)-HEXANOIC ACID P-TOLYLAMIDE]: 10 to 50 µM. The same measure for `Cc1ccc(NC(=O)[C@H](CCCCN)NC(=O)COc2cccc(Cl)c2)cc1` [Compound 330, (S)-^6-AMINO-2-[2-(^3-CHLORO-PHENOXY)-ACETYLAMINO]-HEXANOIC ACID P-TOLYLAMIDE]: over 50 µM.

Molecule `NCCC[C@@H](NC(=O)Nc1ccc2c(c1)Cc1ccccc1-2)C(=O)Nc1ccc(C2CCCCC2)cc1` [Compound 203, (R)-5-AMINO-2-[3-(9H-FLUOREN-2-YL)-UREIDO]-PENTANOIC ACID (4-CYCLOHEXYL-PHENYL)-AMIDE] yielded an IC50 of under 10 µM.

In turn, `Cc1ccc(NC(=O)C(CCCCN)NC(=O)Nc2cccc3ccccc23)cc1` [Compound 71, (S)-6-AMINO-2-(3-NAPHTHALEN-1-YL-UREIDO)-HEXANOIC ACID P-TOLYLAMIDE] registered an IC50 of over 50 µM. The same measure for `Cc1ccc(NC(=O)C(CCNC(=O)CN)NC(=O)OCC2c3ccccc3-c3ccccc32)cc1` [Compound 221, (S)-[3-(2-AMINO-ACETYLAMINO)-1-P-TOLYLCARBAMOYL-PROPYL]-CARBAMIC ACID 9H-FLUOREN-9-YLMETHYL ESTER]: over 50 µM. The same measure for `Cc1ccc(NC(=O)C(CCCCN)NC(=O)Nc2ccccc2-c2ccccc2)cc1` [Compound 73, (S)-6-AMINO-2-(3-BIPHENYL-2-YL-UREIDO)-HEXANOIC ACID P-TOLYLAMIDE]: over 50 µM. The same measure for `Cc1ccc(NC(=O)C(CCO)NC(=O)OCC2c3ccccc3-c3ccccc32)cc1` [Compound 374, (S)-(3-HYDROXY-1-P-TOLYLCARBAMOYL-PROPYL)-CARBAMIC ACID 9H-FLUOREN-9-YLMETHYL ESTER]: over 50 µM.
